For series [1], the system named is DSS-induced IBD model animals. Kind of series: Actions of improving the clinical conditions in DSS-induced IBD model. The settings on record: for Change in length of the large intestine (Ratio to the no treatment group, %): C57BL/6N mice, 3% DSS Day 0-4, drug Day 4-10, determined Day 11, control 73.4. The class given is in vivo, mice. Here is the method:
This test was performed according to the method described in PEDIATRIC RESEARCH, Vol. 53, No. 1, 143 to 147, 2003. In particular, mice (6-week-old, C57BL/6N Jcl, CLEA Japan, Inc.) were divided into groups of eight mice each such that average body weight was the same in each group on Day 0. […] Determination was made on the next day of the last administration of each drug (Day 11). As the evaluation index, the length of the large intestine and the rate of body weight change from the first day of the test (Day 0) to the last day of the test (Day 11) were measured.

Another series concerns SD rats. The settings on record: 2000 mg/kg single oral dose in 0.5% HPMC, five male and five female SD rats. Here is the method:
2000 mg/kg of Compound (1) was suspended in 0.5% HPMC solution, and orally administered at a single dose of 10 mL/kg to five male and five female SD rats (6-week-old).

Series [2] concerns intestinal epithelial cells. Kind of series: Inhibition of apoptosis of large intestinal epithelial cells in TNBS-induced colitis. The class given is in vivo, mouse. Particulars: TNBS-induced colitis large intestine, Giemsa staining, 1000 cells per segment; TNBS alone 40.0±3.0%. The method, then:
Large intestine affected by TNBS-induced colitis was subjected to Giemsa staining to stain the nucleus, and apoptosis of the intestinal epithelial cells was investigated (FIG. 3). Cells showing cell shrinkage or nucleus fragmentation were taken as apoptoic cells. 1000 cells in each segment were observed under the microscope, and the ratio of apoptotic cells (the apoptosis induction rate) was calculated (FIG. 4).

Where [3] appears, read: Compound 100, prednisolone 5, 5-ASA 100 mg/kg/day.

Structures are written as SMILES.

As for `Nc1ccc(O)c(C(=O)O)c1` [Compound 5-ASA, 5-aminosalycilic acid], in series [1] (setting [3]), the “Change in length of the large intestine (Ratio to the no treatment group, %)” value (“Change … (Ratio to the no treatment group, %)” for short) is 80.3%. In addition, the “weight loss (rate of body weight change from first day to determination day)” value in series [1] (Day 0 to Day 11, printed as loss, prednisolone 5, 5-ASA 100 mg/kg/day, control loss 1.7±1.8) turned out to be 5.0±0.3%. Further, in series [1] (Day 0 to Day 11, Compound 100, prednisolone 5, 5-ASA 100 mg/kg/day, control −1.7 ± 1.8, no treatment 3.7 ± 1.5), the “Rate of body weight change (%, Mean ± SE)” value is −5.0 ± 0.3%.

In the case of `Cl.N=C1CCCN1Cc1[nH]c(=O)[nH]c(=O)c1Cl` [Compound (1), 5-chloro-6-(2-iminopyrrolidin-1-yl)methyl-2,4(1H,3H)-pyrimidinedione hydrochloride], the “Change … (Ratio to the no treatment group, %)” value in series [1] (setting [3]) turned out to be 88.6%. The death entry with SD rats is reported as “no case of death”.

Turning to `N=C1CCCN1Cc1[nH]c(=O)[nH]c(=O)c1Cl` [Compound (I), 5-chloro-6-(2-iminopyrrolidin-1-yl)methyl-2,4(1H,3H)-pyrimidinedione], the “ratio of apoptotic cells (apoptosis induction rate)” value in series [2] is listed as 26.0±5.0%. Also, the “Change … (Ratio to the no treatment group, %)” value in series [1] (setting [3]) turned out to be 88.6%.

With `C[C@]12C=CC(=O)C=C1CC[C@@H]1[C@@H]2[C@@H](O)C[C@@]2(C)[C@H]1CC[C@]2(O)C(=O)CO` [Prednisolone, prednisolone], the “Change … (Ratio to the no treatment group, %)” value in series [1] (setting [3]) was 93.2%.

The values above are taken from US20090209565A1, “THERAPEUTIC AGENT FOR INFLAMMATORY BOWEL DISEASE” (priority 2006, published 2009).
